From ChEMBL document CHEMBL1201862, “PubChem BioAssay data set” (2004)
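These data come from cells grown in 96-well plates and exposed to compound for 48 hours at five concentrations. GI50 = concentration required for 50% inhibition of growth.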 The source made the active and inactive calls. Cut-off read from the data, not from the text of the source: active = GI50 up to about 1.1 µM and inactive = higher.

Columns and labels:
Assay in all cases: growth of human tumour cells (NCI), 48 h
SW-620 = test system: SW-620
M14 = test system: M14
A549 = test system: A549
UO-31 = test system: UO-31
KM12 = test system: KM12
SNB-19 = test system: SNB-19
SF-539 = test system: SF-539
K562 = test system: K562
SF-268 = test system: SF-268
U-251 = test system: U-251
LOX IMVI = test system: LOX IMVI
NCI-H226 = test system: NCI-H226
HT-29 = test system: HT-29
MCF7 = test system: MCF7
HCC 2998 = test system: HCC 2998
CCRF-CEM = test system: CCRF-CEM
UACC-62 = test system: UACC-62
PC-3 = test system: PC-3
HOP-62 = test system: HOP-62
SK-MEL-5 = test system: SK-MEL-5

Measured: GI50

CCOC(=O)c1sc2c(c1OC(=O)c1ccco1)c(=O)n(-c1ccccc1)c(=S)n2-c1ccccc1
active: UO-31 1.04 µM
inactive: SW-620 42.1 µM | M14 28.2 µM | A549 38.6 µM | KM12 33.4 µM | SNB-19 33.2 µM | SF-539 30.7 µM | K562 30.4 µM | SF-268 46.1 µM | U-251 35.5 µM | LOX IMVI 25.6 µM | NCI-H226 22.1 µM | HT-29 55.2 µM | MCF7 41.3 µM | HCC 2998 31.4 µM | CCRF-CEM 35.8 µM | UACC-62 26.2 µM | PC-3 21.4 µM | HOP-62 32.1 µM | SK-MEL-5 15.8 µM

O=C1CCCC2(c3ccccc3)Nc3ccccc3N12 (stereo not given)
inactive: SW-620 > 100 µM | M14 > 100 µM | A549 > 100 µM | UO-31 > 100 µM | KM12 > 100 µM | SNB-19 > 100 µM | SF-539 > 100 µM | K562 82.6 µM | SF-268 > 100 µM | U-251 > 100 µM | LOX IMVI > 100 µM | NCI-H226 > 100 µM | HT-29 > 100 µM | MCF7 > 100 µM | HCC 2998 > 100 µM | CCRF-CEM > 100 µM | UACC-62 98.6 µM | PC-3 > 100 µM | HOP-62 > 100 µM | SK-MEL-5 > 100 µM

CC1=C(C)C(=O)OC(C(C)(O)C2(O)CC3OC34C3CC(O)C56OC5C=CC(=O)C6(C)C3CCC42C)C1 (stereo not given)
inactive: SW-620 3.03 µM | M14 1.27 µM | A549 3.33 µM | KM12 2.16 µM | SNB-19 4.12 µM | SF-539 2 µM | SF-268 1.64 µM | U-251 1.76 µM | LOX IMVI 1.79 µM | NCI-H226 4.76 µM | HT-29 1.15 µM | MCF7 1.21 µM | HCC 2998 1.26 µM | PC-3 2.87 µM | HOP-62 11 µM | SK-MEL-5 1.67 µM
active: UO-31 0.341 µM | K562 0.927 µM | CCRF-CEM 0.851 µM | UACC-62 0.617 µM

Nc1nn2c(=O)c3ccccc3nc2s1
inactive: SW-620 19.2 µM | M14 28.6 µM | A549 > 100 µM | UO-31 28.2 µM | KM12 > 100 µM | SNB-19 > 100 µM | SF-539 43.9 µM | K562 28.4 µM | SF-268 38.8 µM | U-251 > 100 µM | LOX IMVI 17.5 µM | NCI-H226 23.9 µM | HT-29 41.2 µM | MCF7 50.1 µM | HCC 2998 > 100 µM | CCRF-CEM 18.2 µM | UACC-62 > 100 µM | PC-3 > 100 µM | HOP-62 > 100 µM | SK-MEL-5 56 µM

COc1ccc(C[C@H]2COC(=O)[C@@H]2Cc2ccc(Br)cc2)cc1OC
inactive: SW-620 44.7 µM | M14 33.3 µM | A549 20 µM | UO-31 6.18 µM | KM12 21.9 µM | SNB-19 26.9 µM | SF-539 38.2 µM | K562 11.7 µM | SF-268 20.1 µM | U-251 35 µM | LOX IMVI 11.2 µM | NCI-H226 28.8 µM | HT-29 30.4 µM | MCF7 16.6 µM | HCC 2998 28.3 µM | CCRF-CEM 18.9 µM | UACC-62 27.8 µM | PC-3 15.6 µM | HOP-62 33.6 µM | SK-MEL-5 5.06 µM

COC1CC(OC2C(C)OC(OC3C(C)OC(OC4C(C)OC(O[C@H]5CC[C@@]6(C)C(=CC[C@]7(O)[C@@H]6C[C@@H](OC(C)=O)[C@@]6(C)[C@]7(O)CC[C@@]6(O)C(C)=O)C5)CC4OC)CC3OC)CC2OC)OC(C)C1O (stereo not given in full)
inactive: SW-620 > 25 µM | M14 > 25 µM | A549 > 25 µM | UO-31 > 25 µM | KM12 > 25 µM | SNB-19 > 25 µM | SF-539 > 25 µM | K562 > 25 µM | SF-268 > 25 µM | U-251 > 25 µM | LOX IMVI > 25 µM | NCI-H226 > 25 µM | HT-29 > 25 µM | MCF7 > 25 µM | HCC 2998 > 25 µM | CCRF-CEM > 25 µM | UACC-62 > 25 µM | PC-3 > 25 µM | HOP-62 > 25 µM | SK-MEL-5 > 25 µM

Cc1c(O)c(OC2OC(CO)C(O)C(O)C2O)cc2c1C=C[C@@H]1[C@@]2(C)C(=O)C[C@]2(C)[C@@H]([C@@](C)(O)C(=O)CCC(C)(C)O)[C@H](O)C[C@@]12C (stereo not given in full)
inactive: SW-620 29 µM | M14 26.4 µM | A549 26.7 µM | UO-31 20.2 µM | KM12 25.4 µM | SNB-19 23.2 µM | SF-539 18.1 µM | K562 34.1 µM | SF-268 28.7 µM | U-251 20.7 µM | LOX IMVI 22.6 µM | NCI-H226 23.3 µM | HT-29 28.8 µM | MCF7 33.6 µM | HCC 2998 20.5 µM | CCRF-CEM 37.3 µM | UACC-62 18.1 µM | PC-3 21.6 µM | HOP-62 31.7 µM | SK-MEL-5 23 µM

Cn1c(=O)c2ccccc2[n+]2c(-c3cccc([N+](=O)[O-])c3)csc12
inactive: SW-620 > 100 µM | M14 > 100 µM | A549 91.4 µM | UO-31 > 100 µM | KM12 58.2 µM | SNB-19 > 100 µM | SF-539 59.6 µM | K562 36.7 µM | SF-268 26.5 µM | U-251 32.6 µM | LOX IMVI > 100 µM | NCI-H226 > 100 µM | HT-29 41.3 µM | MCF7 32.6 µM | HCC 2998 > 100 µM | CCRF-CEM 32.6 µM | UACC-62 70.3 µM | PC-3 50.5 µM | HOP-62 21.2 µM | SK-MEL-5 59.7 µM

Cc1cc(Cl)ccc1Nc1nc2c(s1)C(=O)c1ccccc1C2=O
active: M14 0.948 µM
inactive: SW-620 1.94 µM | A549 4.59 µM | UO-31 4.45 µM | KM12 6.01 µM | SNB-19 4.75 µM | SF-539 3.39 µM | K562 2.41 µM | SF-268 3.24 µM | U-251 3.28 µM | LOX IMVI 1.53 µM | NCI-H226 6.34 µM | HT-29 18.3 µM | MCF7 1.87 µM | HCC 2998 6.34 µM | CCRF-CEM 2.18 µM | UACC-62 2.5 µM | PC-3 1.82 µM | HOP-62 5.13 µM | SK-MEL-5 1.82 µM

COc1ccc(/C=C\c2cc(OC)c(OC)c(OC)c2)cc1OCC(=O)O
inactive: SW-620 3.78 µM | M14 3.79 µM | A549 24.8 µM | UO-31 7.13 µM | KM12 5.86 µM | SNB-19 4.18 µM | SF-539 3.64 µM | K562 3.68 µM | SF-268 10.9 µM | U-251 5.96 µM | LOX IMVI 12.2 µM | NCI-H226 15.1 µM | HT-29 > 100 µM | MCF7 36.6 µM | HCC 2998 88.9 µM | CCRF-CEM 4.68 µM | UACC-62 4.99 µM | PC-3 5.5 µM | HOP-62 8.36 µM | SK-MEL-5 4.45 µM

OCCCc1cc(O)c2c(c1)C(CO)C(c1ccc(O)c(O)c1)O2 (stereo not given)
inactive: SW-620 > 100 µM | M14 76.6 µM | A549 > 100 µM | UO-31 > 100 µM | KM12 > 100 µM | SNB-19 > 100 µM | SF-539 > 100 µM | K562 > 100 µM | SF-268 > 100 µM | U-251 > 100 µM | LOX IMVI > 100 µM | NCI-H226 > 100 µM | HT-29 > 100 µM | MCF7 > 100 µM | HCC 2998 > 100 µM | CCRF-CEM > 100 µM | UACC-62 > 100 µM | PC-3 > 100 µM | HOP-62 > 100 µM | SK-MEL-5 > 100 µM

Cc1ccc(C(=O)Nc2ccc(S(=O)(=O)O)c3cc(S(=O)(=O)O)cc(S(=O)(=O)O)c23)cc1NC(=O)c1cccc(NC(=O)Nc2cccc(C(=O)Nc3cc(C(=O)Nc4ccc(S(=O)(=O)O)c5cc(S(=O)(=O)O)cc(S(=O)(=O)O)c45)ccc3C)c2)c1 [SURAMIN]
inactive: SW-620 89.3 µM | M14 74.8 µM | A549 56.4 µM | UO-31 39.4 µM | KM12 > 67.5 µM | SNB-19 > 100 µM | SF-539 > 100 µM | K562 > 93.5 µM | SF-268 66.2 µM | U-251 77.3 µM | LOX IMVI 51.1 µM | NCI-H226 > 63.8 µM | HT-29 62.4 µM | MCF7 > 100 µM | HCC 2998 > 100 µM | CCRF-CEM > 100 µM | UACC-62 54.6 µM | PC-3 > 100 µM | HOP-62 > 100 µM | SK-MEL-5 > 84.7 µM

COc1cc(CC2c3cc(OC)c(OC)cc3CCN2C)c(Oc2cc3c(cc2OC)-c2c(O)c(OC)cc4c2C(C3)N(C)CC4)cc1OC (stereo not given)
inactive: SW-620 39.5 µM | M14 5.04 µM | A549 33.2 µM | UO-31 18.5 µM | KM12 15 µM | SNB-19 25.3 µM | SF-539 14.1 µM | K562 10.8 µM | SF-268 17.8 µM | U-251 24.5 µM | LOX IMVI 16.5 µM | NCI-H226 26.7 µM | HT-29 6.82 µM | MCF7 12.5 µM | HCC 2998 13.1 µM | CCRF-CEM 18.8 µM | UACC-62 20.5 µM | PC-3 23.3 µM | HOP-62 23.7 µM | SK-MEL-5 13.9 µM
